Assay results published in PMC5218480 (PLoS ONE, 2017).

Tested on: MV-4-11 cells
Test: Gene expression microarray analysis (Affymetrix PrimeView) and GSEA
Type: cell-based, human
Parameters: RFU PODN (11730768_x_at) / Fold change /veh PODN (11730768_x_at) / RFU LINC00158 (11744669_a_at) / Fold change /veh LINC00158 (11744669_a_at) / RFU DUSP10 (11751237_a_at) / Fold change /veh DUSP10 (11751237_a_at) / RFU ID3 (11757404_x_at) / Fold change /veh ID3 (11757404_x_at) / RFU PLEKHG5 (11737974_s_at) / Fold change /veh PLEKHG5 (11737974_s_at) / RFU LRRC4B (11730491_at) / Fold change /veh LRRC4B (11730491_at) / RFU GIMAP4 (11747438_a_at) / Fold change /veh GIMAP4 (11747438_a_at) / RFU KRT8 (11758183_x_at) / Fold change /veh KRT8 (11758183_x_at) / RFU CNN1 (11734310_a_at) / Fold change /veh CNN1 (11734310_a_at) / RFU VPS37D (11726825_at) / Fold change /veh VPS37D (11726825_at) / RFU C10orf10 (11716522_x_at) / Fold change /veh C10orf10 (11716522_x_at) / RFU KIR2DL2 /// KIR2DL4 /// KIR2DL5A /// KIR2DL5B /// KIR2DS1 /// KIR2DS2 /// KIR2DS3 /// KIR2DS4 /// KIR3DL3 /// KIR3DL3 /// KIR3DS1 (11738374_at) / Fold change /veh KIR2DL2 /// KIR2DL4 /// KIR2DL5A /// KIR2DL5B /// KIR2DS1 /// KIR2DS2 /// KIR2DS3 /// KIR2DS4 /// KIR3DL3 /// KIR3DL3 /// KIR3DS1 (11738374_at) / RFU C1QL1 (11718748_at) / Fold change /veh C1QL1 (11718748_at) / RFU TMPRSS4 (11747572_a_at) / Fold change /veh TMPRSS4 (11747572_a_at) / RFU HAMP (11756126_x_at) / Fold change /veh HAMP (11756126_x_at) / RFU RNFT2 (11725882_a_at) / Fold change /veh RNFT2 (11725882_a_at) / RFU NR4A2 (11747474_a_at) / Fold change /veh NR4A2 (11747474_a_at) / RFU ABCC12 (11746883_a_at) / Fold change /veh ABCC12 (11746883_a_at) / RFU TMEM136 (11760407_x_at) / Fold change /veh TMEM136 (11760407_x_at) / RFU CLDN22 /// WWC2 (11732394_at) / Fold change /veh CLDN22 /// WWC2 (11732394_at) / RFU HLA-DPB1 (11760878_x_at) / Fold change /veh HLA-DPB1 (11760878_x_at) / RFU SPINT1 (11716480_a_at) / Fold change /veh SPINT1 (11716480_a_at) / RFU GAP43 (11754022_s_at) / Fold change /veh GAP43 (11754022_s_at) / RFU A4GNT (11735810_at) / Fold change /veh A4GNT (11735810_at) / RFU PRB3 (11715151_x_at) / Fold change /veh PRB3 (11715151_x_at) / RFU TUBB4B (11761932_at) / Fold change /veh TUBB4B (11761932_at) / RFU CAPN14 (11732068_a_at) / Fold change /veh CAPN14 (11732068_a_at) / RFU TMCC2 (11721928_a_at) / Fold change /veh TMCC2 (11721928_a_at) / RFU IRGQ (11745062_a_at) / Fold change /veh IRGQ (11745062_a_at) / RFU FAM174B (11720279_a_at) / Fold change /veh FAM174B (11720279_a_at) / RFU TMPRSS4 (11748680_a_at) / Fold change /veh TMPRSS4 (11748680_a_at) / RFU FAM212B (11763350_a_at) / Fold change /veh FAM212B (11763350_a_at) / RFU PLEKHG5 (11743358_a_at) / Fold change /veh PLEKHG5 (11743358_a_at) / RFU ZSCAN30 (11745921_a_at) / Fold change /veh ZSCAN30 (11745921_a_at) / RFU CMKLR1 (11741424_a_at) / Fold change /veh CMKLR1 (11741424_a_at) / RFU LOC101060620 /// MAPK8IP1 (11723275_at) / Fold change /veh LOC101060620 /// MAPK8IP1 (11723275_at) / RFU SPTSSB (11747773_x_at) / Fold change /veh SPTSSB (11747773_x_at) / RFU PRSS12 (11739890_at) / Fold change /veh PRSS12 (11739890_at) / RFU BIN1 (11741810_x_at) / Fold change /veh BIN1 (11741810_x_at) / RFU WNT11 (11732464_a_at) / Fold change /veh WNT11 (11732464_a_at) / RFU C10orf10 (11716521_a_at) / Fold change /veh C10orf10 (11716521_a_at) / RFU C5orf56 (11738089_at) / Fold change /veh C5orf56 (11738089_at) / RFU CYB561 (11721691_x_at) / Fold change /veh CYB561 (11721691_x_at) / RFU ANKRD19P (11752326_a_at) / Fold change /veh ANKRD19P (11752326_a_at) / RFU OR2T12 /// OR2T33 /// OR2T8 (11738714_s_at) / Fold change /veh OR2T12 /// OR2T33 /// OR2T8 (11738714_s_at) / RFU VCAN (11748164_a_at) / Fold change /veh VCAN (11748164_a_at) / RFU JSRP1 (11732532_at) / Fold change /veh JSRP1 (11732532_at) / RFU KRTAP10-11 (11738290_x_at) / Fold change /veh KRTAP10-11 (11738290_x_at) / RFU MYO3A (11730013_a_at) / Fold change /veh MYO3A (11730013_a_at) / RFU EBF3 (11725865_a_at) / Fold change /veh EBF3 (11725865_a_at) / RFU CAMK2N1 (11719241_x_at) / Fold change /veh CAMK2N1 (11719241_x_at) / RFU C5orf56 (11738088_a_at) / Fold change /veh C5orf56 (11738088_a_at) / RFU OLFML3 (11715873_a_at) / Fold change /veh OLFML3 (11715873_a_at) / RFU LOC100653217 /// NTM (11731650_a_at) / Fold change /veh LOC100653217 /// NTM (11731650_a_at) / RFU MAPK11 (11762145_a_at) / Fold change /veh MAPK11 (11762145_a_at) / RFU FIZ1 (11724087_x_at) / Fold change /veh FIZ1 (11724087_x_at) / RFU OASL (11726364_x_at) / Fold change /veh OASL (11726364_x_at) / RFU SOX15 (11748057_x_at) / Fold change /veh SOX15 (11748057_x_at) / RFU CD79A (11719716_a_at) / Fold change /veh CD79A (11719716_a_at) / RFU HIST1H1D (11736915_at) / Fold change /veh HIST1H1D (11736915_at) / RFU CASKIN2 (11723855_a_at) / Fold change /veh CASKIN2 (11723855_a_at) / RFU LOC730098 (11760151_x_at) / Fold change /veh LOC730098 (11760151_x_at) / RFU OR4N2 (11742367_at) / Fold change /veh OR4N2 (11742367_at) / RFU PRRT2 (11749266_a_at) / Fold change /veh PRRT2 (11749266_a_at) / RFU SNX32 (11753110_a_at) / Fold change /veh SNX32 (11753110_a_at) / RFU CDHR5 (11726645_a_at) / Fold change /veh CDHR5 (11726645_a_at) / RFU RCAN1 (11760418_a_at) / Fold change /veh RCAN1 (11760418_a_at) / RFU FAM167A (11723789_a_at) / Fold change /veh FAM167A (11723789_a_at) / RFU FAM26E (11764081_at) / Fold change /veh FAM26E (11764081_at) / RFU ISYNA1 (11749810_s_at) / Fold change /veh ISYNA1 (11749810_s_at) / RFU ACY1 (11761880_at) / Fold change /veh ACY1 (11761880_at) / RFU 11764098_at / Fold change /veh 11764098_at / RFU SAMD14 (11745864_x_at) / Fold change /veh SAMD14 (11745864_x_at) / RFU NPB (11741838_a_at) / Fold change /veh NPB (11741838_a_at) / RFU TMPRSS6 (11731388_a_at) / Fold change /veh TMPRSS6 (11731388_a_at) / RFU KRTAP10-2 (11738614_at) / Fold change /veh KRTAP10-2 (11738614_at) / RFU ARHGAP8 /// PRR5-ARHGAP8 (11727945_x_at) / Fold change /veh ARHGAP8 /// PRR5-ARHGAP8 (11727945_x_at) / RFU KRTAP5-7 /// NADSYN1 (11734609_at) / Fold change /veh KRTAP5-7 /// NADSYN1 (11734609_at) / RFU RASL12 (11751679_a_at) / Fold change /veh RASL12 (11751679_a_at) / RFU CDKN2B (11736163_a_at) / Fold change /veh CDKN2B (11736163_a_at) / RFU PRF1 (11729649_at) / Fold change /veh PRF1 (11729649_at) / RFU, ZNF638 /// ZNF638-IT1 / Fold change vs veh, ZNF638 /// ZNF638-IT1 / RFU, PANK3 / Fold change vs veh, PANK3 / RFU, SH3YL1 / Fold change vs veh, SH3YL1 / RFU, ZEB2 / Fold change vs veh, ZEB2 / RFU, NRIP1 / Fold change vs veh, NRIP1 / RFU, PTTG1IP / Fold change vs veh, PTTG1IP / RFU, CAPN2 / Fold change vs veh, CAPN2 / RFU, MED14 / Fold change vs veh, MED14 / RFU, SNORA58 / Fold change vs veh, SNORA58 / RFU, C1orf63 / Fold change vs veh, C1orf63 / RFU, LRRFIP1 / Fold change vs veh, LRRFIP1 / RFU, NDUFAF7 / Fold change vs veh, NDUFAF7 / RFU, SLC12A2 / Fold change vs veh, SLC12A2 / RFU, IBTK / Fold change vs veh, IBTK / RFU, ESF1 / Fold change vs veh, ESF1 / Fold change vs veh, TMEM50B / RFU, TAOK1 / Fold change vs veh, TAOK1 / RFU, ACBD3 / Fold change vs veh, ACBD3 / RFU, TMA16 / Fold change vs veh, TMA16 / RFU, RWDD3 / Fold change vs veh, RWDD3 / RFU, BCAT1 / Fold change vs veh, BCAT1 / RFU, EDEM3 / Fold change vs veh, EDEM3 / RFU, TMEM33 / Fold change vs veh, TMEM33 / RFU, WDR75 / Fold change vs veh, WDR75 / RFU, AHCTF1 / Fold change vs veh, AHCTF1 / RFU, TFRC / Fold change vs veh, TFRC / RFU, ZDHHC17 / Fold change vs veh, ZDHHC17 / RFU, NOM1 / Fold change vs veh, NOM1 / RFU, ARL8B / Fold change vs veh, ARL8B / RFU, ZBTB11 / Fold change vs veh, ZBTB11 / RFU, TAMM41 / Fold change vs veh, TAMM41 / RFU, KIAA1704 /// LOC100996395 / Fold change vs veh, KIAA1704 /// LOC100996395 / RFU, ING1 / Fold change vs veh, ING1 / RFU, TRMT61B / Fold change vs veh, TRMT61B / RFU, FUBP3 / Fold change vs veh, FUBP3 / RFU, TP53 / Fold change vs veh, TP53 / RFU, TNKS2 / Fold change vs veh, TNKS2 / RFU, ZFP14 / Fold change vs veh, ZFP14 / RFU, ACTR2 / Fold change vs veh, ACTR2 / RFU, PPP3R1 / Fold change vs veh, PPP3R1 / RFU, PIK3R1 / Fold change vs veh, PIK3R1 / RFU, HNRNPA1 / Fold change vs veh, HNRNPA1 / RFU, RNF170 / Fold change vs veh, RNF170 / RFU, ZNF28 / Fold change vs veh, ZNF28 / RFU, RNGTT / Fold change vs veh, RNGTT / RFU, OGT / Fold change vs veh, OGT / RFU, BRD1 / Fold change vs veh, BRD1 / RFU, MARS / Fold change vs veh, MARS / RFU, ZNF655 / Fold change vs veh, ZNF655 / RFU, FAHD1 / Fold change vs veh, FAHD1 / RFU, BDP1 / Fold change vs veh, BDP1 / RFU, LRRCC1 / Fold change vs veh, LRRCC1 / RFU, ARID1A / Fold change vs veh, ARID1A / RFU, ZNF146 / Fold change vs veh, ZNF146 / RFU, ZNF330 / Fold change vs veh, ZNF330 / RFU, GPN3 / Fold change vs veh, GPN3 / RFU, C9orf123 / Fold change vs veh, C9orf123 / RFU, N4BP2L2 / Fold change vs veh, N4BP2L2 / RFU, ARFIP1 / Fold change vs veh, ARFIP1 / RFU, FAM179B / Fold change vs veh, FAM179B / RFU, BCL10 / Fold change vs veh, BCL10 / RFU, UHRF1BP1L / Fold change vs veh, UHRF1BP1L / RFU, BET1 / Fold change vs veh, BET1 / RFU, CNOT2 / Fold change vs veh, CNOT2 / RFU, ZNF268 / Fold change vs veh, ZNF268 / Fold change vs veh, ZNF507 / RFU, DGCR2 / Fold change vs veh, DGCR2 / RFU, WDSUB1 / Fold change vs veh, WDSUB1 / Fold change vs veh, HSP90B1 /// MIR3652 / RFU, ADSS / Fold change vs veh, ADSS / RFU, GK / Fold change vs veh, GK / RFU, ZNF148 / Fold change vs veh, ZNF148 / RFU, TAF9 / Fold change vs veh, TAF9 / RFU, SLC1A5 / Fold change vs veh, SLC1A5 / RFU, SLMO2 / Fold change vs veh, SLMO2 / RFU, ABCC4 / Fold change vs veh, ABCC4 / RFU, LOC101060439 /// RAP1B / Fold change vs veh, LOC101060439 /// RAP1B / RFU, RFX7 / Fold change vs veh, RFX7 / RFU, GTPBP10 / Fold change vs veh, GTPBP10 / RFU, CNEP1R1 / Fold change vs veh, CNEP1R1 / RFU, BIVM-ERCC5 /// ERCC5 / Fold change vs veh, BIVM-ERCC5 /// ERCC5 / RFU, ILF3 / Fold change vs veh, ILF3 / RFU 11762660_at / Fold change /veh 11762660_at / RFU VCAN (11757783_s_at) / Fold change /veh VCAN (11757783_s_at) / RFU DDX43 (11728927_at) / Fold change /veh DDX43 (11728927_at) / RFU KRT8 (11758188_x_at) / Fold change /veh KRT8 (11758188_x_at) / RFU NKD1 (11759106_at) / Fold change /veh NKD1 (11759106_at) / RFU SRD5A1 (11742802_a_at) / Fold change /veh SRD5A1 (11742802_a_at) / RFU TPSAB1 /// TPSB2 (11721975_s_at) / Fold change /veh TPSAB1 /// TPSB2 (11721975_s_at) / RFU GSTM3 (11746129_a_at) / Fold change /veh GSTM3 (11746129_a_at) / RFU IL23R (11737362_x_at) / Fold change /veh IL23R (11737362_x_at) / RFU TMEM51 (11727254_a_at) / Fold change /veh TMEM51 (11727254_a_at) / RFU PIWIL2 (11732686_x_at) / Fold change /veh PIWIL2 (11732686_x_at) / RFU ORM1 (11744905_x_at) / Fold change /veh ORM1 (11744905_x_at) / RFU CCDC152 (11743942_at) / Fold change /veh CCDC152 (11743942_at) / RFU ECM1 (11717891_a_at) / Fold change /veh ECM1 (11717891_a_at) / RFU IL23R (11748794_a_at) / Fold change /veh IL23R (11748794_a_at) / RFU TNFAIP8L3 (11732012_x_at) / Fold change /veh TNFAIP8L3 (11732012_x_at) / RFU MBOAT4 (11741988_at) / Fold change /veh MBOAT4 (11741988_at) / RFU 11764193_at / Fold change /veh 11764193_at / RFU TMEM53 (11763286_at) / Fold change /veh TMEM53 (11763286_at) / RFU MAGEB2 (11727129_at) / Fold change /veh MAGEB2 (11727129_at) / RFU TMEM200A (11744735_a_at) / Fold change /veh TMEM200A (11744735_a_at) / RFU CCDC152 (11751479_a_at) / Fold change /veh CCDC152 (11751479_a_at) / RFU FAM211A (11726209_a_at) / Fold change /veh FAM211A (11726209_a_at) / RFU RGS16 (11746705_a_at) / Fold change /veh RGS16 (11746705_a_at) / RFU VCAN (11755009_s_at) / Fold change /veh VCAN (11755009_s_at) / RFU RHOB (11743442_s_at) / Fold change /veh RHOB (11743442_s_at) / RFU RGS16 (11720943_a_at) / Fold change /veh RGS16 (11720943_a_at) / RFU RGS16 (11720944_at) / Fold change /veh RGS16 (11720944_at) / RFU, VPS4B / Fold change vs veh, VPS4B / RFU, CREB1 / Fold change vs veh, CREB1 / RFU, DNAJC13 / Fold change vs veh, DNAJC13 / RFU, GNAQ / Fold change vs veh, GNAQ / RFU, CDK5R1 / Fold change vs veh, CDK5R1 / RFU, ZRANB3 / Fold change vs veh, ZRANB3 / RFU, CUL4A / Fold change vs veh, CUL4A / RFU, CCNY / Fold change vs veh, CCNY / RFU, UFL1 / Fold change vs veh, UFL1 / RFU, COG3 / Fold change vs veh, COG3 / RFU, DIAPH2 / Fold change vs veh, DIAPH2 / RFU, SKA2 / Fold change vs veh, SKA2 / RFU, AFF3 / Fold change vs veh, AFF3 / RFU, LMF1 / Fold change vs veh, LMF1 / RFU, IPO11 / Fold change vs veh, IPO11 / RFU, DFFB / Fold change vs veh, DFFB / RFU, FOXP1 / Fold change vs veh, FOXP1 / RFU, CARD8 / Fold change vs veh, CARD8 / RFU, STRN3 / Fold change vs veh, STRN3 / RFU, ADK / Fold change vs veh, ADK / RFU, RASSF2 / Fold change vs veh, RASSF2 / RFU, WIPF1 / Fold change vs veh, WIPF1 / RFU, LARP1B / Fold change vs veh, LARP1B / RFU, RASA1 / Fold change vs veh, RASA1 / RFU, RB1 / Fold change vs veh, RB1 / RFU, PPFIA1 / Fold change vs veh, PPFIA1 / RFU, MAT2A / Fold change vs veh, MAT2A / RFU, CCT5 / Fold change vs veh, CCT5 / RFU, WDR92 / Fold change vs veh, WDR92 / RFU, CUX1 / Fold change vs veh, CUX1 / RFU, TTC7A / Fold change vs veh, TTC7A / RFU, TMEM135 / Fold change vs veh, TMEM135 / RFU, DEPTOR / Fold change vs veh, DEPTOR / RFU, CPM / Fold change vs veh, CPM / RFU, DNAJB6 / Fold change vs veh, DNAJB6 / RFU, CACNA2D3 / Fold change vs veh, CACNA2D3 / RFU, DTX4 / Fold change vs veh, DTX4 / RFU, TFCP2 / Fold change vs veh, TFCP2 / RFU, GMCL1 /// GMCL1P1 / Fold change vs veh, GMCL1 /// GMCL1P1 / RFU, AEBP2 / Fold change vs veh, AEBP2 / RFU, SNHG1 /// SNORD22 /// SNORD25 /// SNORD26 /// SNORD27 /// SNORD28 /// SNORD29 /// SNORD31 / Fold change vs veh, SNHG1 /// SNORD22 /// SNORD25 /// SNORD26 /// SNORD27 /// SNORD28 /// SNORD29 /// SNORD31 / Fold change (Aza/veh), C12orf56 (ProbeSet 11735607_a_at) / Fold change (ACY-1035/veh), C12orf56 (ProbeSet 11735607_a_at) / Fold change (Aza/veh), FGFR1OP (ProbeSet 11751329_s_at) / Fold change (ACY-1035/veh), FGFR1OP (ProbeSet 11751329_s_at) / Fold change (Aza/veh), VPS36 (ProbeSet 11739960_a_at) / Fold change (ACY-1035/veh), VPS36 (ProbeSet 11739960_a_at) / RFU SYPL1 (11715823_x_at) / Fold change /veh SYPL1 (11715823_x_at) / RFU IGFBP7 (11715501_s_at) / Fold change /veh IGFBP7 (11715501_s_at) / RFU REEP3 (11722064_at) / Fold change /veh REEP3 (11722064_at) / RFU IGLL1 (11728026_x_at) / Fold change /veh IGLL1 (11728026_x_at): dose or concentration left out as unconfirmed
Conditions: MV-4-11 cells, 48 hours

Compound: Nc1ncn([C@@H]2O[C@H](CO)[C@@H](O)[C@H]2O)c(=O)n1 [azacitidine]
- RFU DUSP10 (11751237_a_at): 30.26 RFU
